Experimental data reported in patent publication US8952024B2, “Herbicidal pyrimidone derivatives” (E I du Pont de Nemours and Company, priority 2009, dated 2015).

Each compound was assayed on giant foxtail (Setaria faberii) (assay: Test B pre-/postemergence plant response). Conditions: Postemergence, 125 g ai/ha; scale 0 to 100 (0 no effect, 100 complete control).
Type: in vivo
How it was run: (§1)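 Plants treated either at seeding (loam/sand soil) or postemergence at 2 to 18 cm height, using a surfactant-containing non-phytotoxic solvent formulation. Evaluation was visual after 13 to 15 days, 0 to 100 scale relative to controls.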

SMILES	Plant response rating, Foxtail, Giant
COCCn1c(-c2cccc(Cl)c2)ncc(C(=O)C2=C(O)CCCC2=O)c1=O [Compound 147]	85

Same assay, conditions: Postemergence, 250 g ai/ha; scale 0 to 100 (0 no effect, 100 complete control); 13 to 15 days

SMILES	Plant response rating, Foxtail, Giant
COCCn1c(-c2cccc(Cl)c2)ncc(C(=O)C2=C(O)CCCC2=O)c1=O [Compound 147]	90

Each compound was assayed on downy bromegrass (Bromus tectorum) (assay: Test B pre-/postemergence plant response). Conditions: 62 g ai/ha, postemergence; 0 is no effect, 100 is complete control; 13 to 15 days.
Type: in vivo
How it was run: as §1

SMILES	Bromegrass, Downy plant response rating (0 to 100 scale)
COCCn1c(-c2cccc(Cl)c2)ncc(C(=O)C2=C(O)CCCC2=O)c1=O [Compound 147]	5

Same assay, conditions: Postemergence, 31 g ai/ha; 0 to 100 scale (0 no effect, 100 complete control)

SMILES	Plant response rating, Bromegrass, Downy
COCCn1c(-c2cccc(Cl)c2)ncc(C(=O)C2=C(O)CCCC2=O)c1=O [Compound 147]	0

Same assay, conditions: Postemergence, 125 g ai/ha; scale 0 to 100 (0 no effect, 100 complete control)

SMILES	Plant response rating, Bromegrass, Downy
COCCn1c(-c2cccc(Cl)c2)ncc(C(=O)C2=C(O)CCCC2=O)c1=O [Compound 147]	5

Same assay, conditions: Postemergence, 250 g ai/ha; scale 0 to 100 (0 no effect, 100 complete control); 13 to 15 days

SMILES	Plant response rating, Bromegrass, Downy
COCCn1c(-c2cccc(Cl)c2)ncc(C(=O)C2=C(O)CCCC2=O)c1=O [Compound 147]	10

Each compound was assayed on blackgrass (Alopecurus myosuroides) (assay: Test B pre-/postemergence plant response). Conditions: 62 g ai/ha, postemergence; 0 is no effect, 100 is complete control; 13 to 15 days.
Type: in vivo
How it was run: as §1

SMILES	Blackgrass plant response rating (0 to 100 scale)
COCCn1c(-c2cccc(Cl)c2)ncc(C(=O)C2=C(O)CCCC2=O)c1=O [Compound 147]	40

Same assay, conditions: Postemergence, 31 g ai/ha; 0 to 100 scale (0 no effect, 100 complete control)

SMILES	Plant response rating, Blackgrass
COCCn1c(-c2cccc(Cl)c2)ncc(C(=O)C2=C(O)CCCC2=O)c1=O [Compound 147]	10

Same assay, conditions: Postemergence, 125 g ai/ha; scale 0 to 100 (0 no effect, 100 complete control)

SMILES	Plant response rating, Blackgrass
COCCn1c(-c2cccc(Cl)c2)ncc(C(=O)C2=C(O)CCCC2=O)c1=O [Compound 147]	45

Same assay, conditions: Postemergence, 250 g ai/ha; scale 0 to 100 (0 no effect, 100 complete control); 13 to 15 days

SMILES	Plant response rating, Blackgrass
COCCn1c(-c2cccc(Cl)c2)ncc(C(=O)C2=C(O)CCCC2=O)c1=O [Compound 147]	55

These compounds were tested on green foxtail (Setaria viridis) (assay: Test B pre-/postemergence plant response). Conditions: 62 g ai/ha, postemergence; 0 is no effect, 100 is complete control; 13 to 15 days.
Type: in vivo
How it was run: as §1

SMILES	Foxtail, Green plant response rating (0 to 100 scale)
COCCn1c(-c2cccc(Cl)c2)ncc(C(=O)C2=C(O)CCCC2=O)c1=O [Compound 147]	65

Same assay, conditions: Postemergence, 31 g ai/ha; 0 to 100 scale (0 no effect, 100 complete control)

SMILES	Plant response rating, Foxtail, Green
COCCn1c(-c2cccc(Cl)c2)ncc(C(=O)C2=C(O)CCCC2=O)c1=O [Compound 147]	40

Same assay, conditions: Postemergence, 125 g ai/ha; scale 0 to 100 (0 no effect, 100 complete control)

SMILES	Plant response rating, Foxtail, Green
COCCn1c(-c2cccc(Cl)c2)ncc(C(=O)C2=C(O)CCCC2=O)c1=O [Compound 147]	80

Same assay, conditions: Postemergence, 250 g ai/ha; scale 0 to 100 (0 no effect, 100 complete control); 13 to 15 days

SMILES	Plant response rating, Foxtail, Green
COCCn1c(-c2cccc(Cl)c2)ncc(C(=O)C2=C(O)CCCC2=O)c1=O [Compound 147]	90

The compounds below were run on Surinam grass (Brachiaria decumbens) (assay: Test B pre-/postemergence plant response). Conditions: 62 g ai/ha, postemergence; 0 is no effect, 100 is complete control; 13 to 15 days.
Type: in vivo
How it was run: as §1

SMILES	Surinam Grass plant response rating (0 to 100 scale)
COCCn1c(-c2cccc(Cl)c2)ncc(C(=O)C2=C(O)CCCC2=O)c1=O [Compound 147]	65

Same assay, conditions: Postemergence, 31 g ai/ha; 0 to 100 scale (0 no effect, 100 complete control)

SMILES	Plant response rating, Surinam Grass
COCCn1c(-c2cccc(Cl)c2)ncc(C(=O)C2=C(O)CCCC2=O)c1=O [Compound 147]	50

Same assay, conditions: Postemergence, 125 g ai/ha; scale 0 to 100 (0 no effect, 100 complete control)

SMILES	Plant response rating, Surinam Grass
COCCn1c(-c2cccc(Cl)c2)ncc(C(=O)C2=C(O)CCCC2=O)c1=O [Compound 147]	75

Same assay, conditions: Postemergence, 250 g ai/ha; scale 0 to 100 (0 no effect, 100 complete control); 13 to 15 days

SMILES	Plant response rating, Surinam Grass
COCCn1c(-c2cccc(Cl)c2)ncc(C(=O)C2=C(O)CCCC2=O)c1=O [Compound 147]	75

Each compound was assayed on bermudagrass (Cynodon dactylon) (assay: Test B pre-/postemergence plant response). Conditions: 62 g ai/ha, postemergence; 0 is no effect, 100 is complete control; 13 to 15 days.
Type: in vivo
How it was run: as §1

SMILES	Bermudagrass plant response rating (0 to 100 scale)
COCCn1c(-c2cccc(Cl)c2)ncc(C(=O)C2=C(O)CCCC2=O)c1=O [Compound 147]	90

Same assay, conditions: Postemergence, 31 g ai/ha; 0 to 100 scale (0 no effect, 100 complete control)

SMILES	Plant response rating, Bermudagrass
COCCn1c(-c2cccc(Cl)c2)ncc(C(=O)C2=C(O)CCCC2=O)c1=O [Compound 147]	75

Same assay, conditions: Postemergence, 125 g ai/ha; scale 0 to 100 (0 no effect, 100 complete control)

SMILES	Plant response rating, Bermudagrass
COCCn1c(-c2cccc(Cl)c2)ncc(C(=O)C2=C(O)CCCC2=O)c1=O [Compound 147]	95

Same assay, conditions: Postemergence, 250 g ai/ha; scale 0 to 100 (0 no effect, 100 complete control); 13 to 15 days

SMILES	Plant response rating, Bermudagrass
COCCn1c(-c2cccc(Cl)c2)ncc(C(=O)C2=C(O)CCCC2=O)c1=O [Compound 147]	98

These compounds were tested on corn (Zea mays) (assay: Test B pre-/postemergence plant response). Conditions: 62 g ai/ha, postemergence; 0 is no effect, 100 is complete control; 13 to 15 days.
Type: in vivo
How it was run: as §1

SMILES	Corn plant response rating (0 to 100 scale)
COCCn1c(-c2cccc(Cl)c2)ncc(C(=O)C2=C(O)CCCC2=O)c1=O [Compound 147]	15

Same assay, conditions: Postemergence, 31 g ai/ha; 0 to 100 scale (0 no effect, 100 complete control)

SMILES	Plant response rating, Corn
COCCn1c(-c2cccc(Cl)c2)ncc(C(=O)C2=C(O)CCCC2=O)c1=O [Compound 147]	0

Same assay, conditions: Postemergence, 125 g ai/ha; scale 0 to 100 (0 no effect, 100 complete control)

SMILES	Plant response rating, Corn
COCCn1c(-c2cccc(Cl)c2)ncc(C(=O)C2=C(O)CCCC2=O)c1=O [Compound 147]	25

Same assay, conditions: Postemergence, 250 g ai/ha; scale 0 to 100 (0 no effect, 100 complete control); 13 to 15 days

SMILES	Plant response rating, Corn
COCCn1c(-c2cccc(Cl)c2)ncc(C(=O)C2=C(O)CCCC2=O)c1=O [Compound 147]	40
